Reference: ChEMBL document CHEMBL1155888, “Synthesis, inhibitory activities, and QSAR study of xanthone derivatives as alpha-glucosidase inhibitors” (Bioorg Med Chem, 2008)

Assay: Inhibition of yeast alpha glucosidase in phosphate buffer after 0.5 hrs by spectrophotometry
Design: species or system Saccharomyces

Structure (SMILES) | IC50 [µM]
O=c1c2ccccc2oc2cccc(O)c12 | 177
COc1cc(O)c2c(=O)c3ccccc3oc2c1 | 173
Oc1cc(O)c2c(c1)Oc1cc3ccccc3cc1C2 | 27.8
COc1cc(O)c2c(=O)c3cc4ccccc4cc3oc2c1 | 31.3
Oc1cc(O)c2c(c1)Oc1ccc3ccccc3c1C2 | 34.9
O=c1c2cc3ccccc3cc2oc2cc(O)cc(O)c12 | 9.3
O=c1c2cc3cc(O)ccc3cc2oc2cc(O)cc(O)c12 | 5.8
O=c1c2cc3cccc(O)c3cc2oc2cc(O)cc(O)c12 | 8
O=c1c2ccccc2oc2cc(OCC3CO3)cc(O)c12 (stereo not drawn) | 66.6
O=c1c2cc(O)ccc2oc2cc(O)cc(O)c12 | 14.7
O=c1c2cc3ccccc3cc2oc2c([N+](=O)[O-])c(O)cc(O)c12 | 20.1
O=c1c2c(O)cc(O)cc2oc2ccc3ccccc3c12 | 39.9
O=c1c2ccccc2oc2cc(O)cc(O)c12 | 161
CCCCCOc1cc(O)c2c(=O)c3ccccc3oc2c1 | 121
O=c1c2ccc(O)cc2oc2cccc(O)c12 | 131
Nc1c(O)cc(O)c2c(=O)c3ccccc3oc12 | 102
CC(=O)Oc1cc(OC(C)=O)c2c(=O)c3ccccc3oc2c1 | 31.9
O=c1c2ccccc2oc2cc(OCC3CCCO3)cc(O)c12 (stereo not drawn) | 53
O=c1c2ccc(OCCCN3CCCCC3)cc2oc2cccc(O)c12 | 133
CCCCCCCOc1cc(O)c2c(=O)c3ccccc3oc2c1 | 114
CCCCCCCCOc1cc(O)c2c(=O)c3ccccc3oc2c1 | 124
O=c1c2ccc(O)cc2oc2cc(O)cc(O)c12 | 41.5

Structure (SMILES) | IC50 [µM]
CC(=O)Oc1cc(OC(C)=O)c2c(=O)c3cc(OC(C)=O)ccc3oc2c1 | 46.5
CCCCCCCCCCOc1cc(O)c2c(=O)c3ccccc3oc2c1 | 116
O=c1c2ccccc2oc2cc(OCc3ccccc3)cc(O)c12 | 98.2
CCCCOc1cc(O)c2c(=O)c3ccccc3oc2c1 | 130
CCOc1cc(O)c2c(=O)c3ccccc3oc2c1 | 111
O=c1c2c(O)cccc2oc2cc(O)cc(O)c12 | 81.8
CC(=O)Oc1cc(OC(C)=O)c2c(=O)c3c(OC(C)=O)cc(OC(C)=O)cc3oc2c1 | 49.7
O=c1c2ccccc2oc2c([N+](=O)[O-])c(O)cc(O)c12 | 235
O=c1c2cc3ccccc3cc2oc2cc(OCCCBr)cc(O)c12 | 29.7
Nc1c(O)cc2oc3cc4ccccc4cc3c(=O)c2c1O | 6.3
O=c1c2ccccc2oc2cc(OCCCBr)cc(O)c12 | 147
O=c1c2ccccc2oc2c3c(cc(O)c12)OCCC3 | 198
O=c1c2cc3ccccc3cc2oc2cc(O)c([N+](=O)[O-])c(O)c12 | 5.9
O=c1c2c(O)cccc2oc2cccc(O)c12 | 91.5
O=c1c2ccc(OCC3CO3)cc2oc2cccc(O)c12 (stereo not drawn) | 63.5
O=c1c2c(O)cc(O)cc2oc2cc(O)cc(O)c12 | 17.1
CC(=O)Oc1ccc2c(=O)c3c(OC(C)=O)cccc3oc2c1 | 139
O=c1c2ccccc2oc2cc(OCCCN3CCN(c4cccc(Cl)c4)CC3)cc(O)c12 | 61.8
O=c1c2ccccc2oc2cc(OCCCN3CCCCC3)cc(O)c12 | 115
O=c1c2cc3ccccc3cc2oc2c3c(cc(O)c12)OCCC3 | 67.3
Nc1c(O)cc(O)c2c(=O)c3cc4ccccc4cc3oc12 | 8.3
